Tested on: T1, Na+,K+-ATPase of adult rat ventricular myocytes
T1 construct: gene Atp1a1; native pump in isolated adult male ventricular myocytes, whole-cell patch clamp; with Sodium/potassium-transporting ATPase subunit beta-1
Assay: whole-cell ruptured-patch pump current (K+-dependent Ip)
Format: cell-based
Settings: 10 min perfusion, 5 mM external K+, 140 mM NaCl, pH 7.2, 35 °C

Oc1cc2c(cc1O)CN(C(=S)NCCc1ccc(Cl)cc1)CCC2 [Capsazepine]
% inhibition at 30 μM: 85%

Reference: PMC4016139, “Inhibition of K^+ Transport through Na^+, K^+-ATPase by Capsazepine: Role of Membrane Span 10 of the α-Subunit in the Modulation of Ion Gating” (PLoS ONE, 2014)
